Source: patent US20180161314A1, “Methods for Treating Hyperuricemia and Related Diseases” (Ardea Biosciences, Inc., priority 2010, published 2018)
Several values for one entry are separate records, joined by “and”; a condition that tells them apart may be missing. Identical values can stand only once.

Tested on: hyperuricemic subjects with symptomatic gout
Experiment: Pilot study of drug 1 versus placebo and open-label allopurinol in hyperuricemic subjects with symptomatic gout (Examples 1, 2, 20)
Assay type: in vivo, human
Procedure: Study Objectives • To compare the proportion of subjects whose sUA level is <6.0 mg/dL following 2 weeks of continuous treatment with drug 1 compared to allopurinol and placebo. • To evaluate the percent reduction from baseline in sUA levels following 2 weeks of continuous treatment with drug 1 in combination with allopurinol. • To evaluate the proportion of subjects whose sUA levels are <6.0 mg/dL, <5.0 mg/dL and <4.0 mg/dL at each visit. • To evaluate the absolute and percent reduction from baseline in sUA levels at each visit. • To evaluate the maximum percent reduction in sUA levels from baseline during the entire treatment period. • To evaluate percent change in 24-hour urine uric acid level from baseline to Day 15. • To evaluate the safety and tolerability of drug 1 in subjects with gout. • To evaluate the pharmacokinetics, safety and tolerability of drug 1 in combination with allopurinol in subjects with gout.
A randomized, double-blind, placebo-controlled, dose titration, safety and pharmacodynamics pilot study, in approximately 26 hyperuricemic subjects with symptomatic gout enrolled at 2-3 investigational sites in N America, of: • drug 1 versus placebo and open-label allopurinol (Cohort 1); and • drug 1 in combination with allopurinol versus continued allopurinol alone (Cohort 2)
Subjects are randomized 7 days prior to Day 1 in a double-blind fashion to receive drug 1, drug 1 matching placebo, or open-label allopurinol (Cohort 1) or drug 1 or drug 1 matching placebo in combination with allopurinol (Cohort 2).
To reduce the incidence of gout flares, colchicine 0.6 mg qd is administered to all subjects starting 14 days prior to the Baseline (Day 1) visit. Subjects continue colchicine administration throughout the Treatment Period, discontinuing at the End of Study visit (one week after the last dose of study medication).
Cohort 1 approx 20 subjects randomized in 2:1:1 ratio treatment groups—drug 1:placebo:allopurinol.
Subjects randomized to double-blind treatment: • approx 10 subjects randomized to receive drug 1 200 mg qd (4 drug 1 50 mg capsules/day) for one week, followed by drug 1 400 mg qd (8 drug 1 50 mg capsules/day) for one week. • 5 subjects randomized to receive drug 1 matching placebo qd for 2 weeks (week 1-4 drug 1 matching placebo capsules; week 2-8 drug 1 matching placebo capsules)
Subjects randomized to open-label treatment: • 5 subjects randomized to receive allopurinol 300 mg tablets qd for 2 weeks Cohort 2 approx 6 subjects randomized in 5:1 ratio treatment groups—drug+allopurinol:placebo+allopurinol
For Cohorts 1 and 2, subjects randomized to double-blind treatment take drug 1 or drug 1 matching placebo every 24 hours (±1 h) (morning dose) for a period of 2 weeks. For Cohort 1, subjects randomized to open-label treatment take allopurinol every 24 hours (±1 h) (morning dose) for a period of 2 weeks.
Subjects are requested to then drink approximately 240 mL of water 1-2 hours after dosing.
1. Male or post-menopausal or surgically sterile female. 2. 18-75 years of age. 3. Hyperuricemic, defined as: Cohort 1: Screening serum uric acid is ≥8 mg/dL Cohort 2: Screening serum uric acid is ≥10 mg/dL 4. Subject meets one or more of the 1977 American Rheumatism Association (ARA) criteria for the diagnosis of acute arthritis of primary gout. 5. Subject is willing and able to give informed consent and adhere to visit/protocol schedules.
Blood samples (4.5 mL) are collected and sUA levels determined at Screening (repeated as necessary prior to Day 1), Baseline (Day 1) (1 hour and 8 hours post-dose), Day 8 (trough, 1 hour and 8 hours post-dose), Day 9 (24 hours after Day 8 dose), and Day 14 (trough and 8 hours post-dose), Day 15 and End of Study. An additional sUA level is obtained on Day 7 for Cohort 2 subjects prior to the first dose of allopurinol.
Primary pharmacodynamics parameter is the proportion of subjects with serum uric acid <6.0 mg/dL following 2 weeks of treatment. […]

[1] = Cohort 1, preliminary safety summary

Structure (SMILES): O=C(O)CSc1nnc(Br)n1-c1ccc(C2CC2)c2ccccc12 [Drug 1, Sodium 2-(5-bromo-4-(4-cyclopropylnaphthalen-1-yl)-4H-1,2,4-triazol-3-ylthio)acetate]
- ECG findings including interval measurements [1]: No clinically significant ECG findings
- Tolerability (SAEs, deaths, discontinuations due to adverse events) [1]: well tolerated in this study, with no SAEs, deaths or discontinuations due to adverse events
- Responders Day 14 (those with sUA <6 mg/dL) (Cohort 1, Day 14, responders/subjects, drug 1 200 mg qd 1 week then 400 mg qd 1 week, allopurinol 300 mg qd 2 weeks): 6/10^2
- sUA at Day 14 of individual patients not below 6 mg/dL (Day 14, two non-responders without baseline sUA above 11 mg/dL): 6.2 mg/dL and 6.3 mg/dL
- Reduction in serum urate levels, on average (after the first week of treatment (200 mg qd)): 40%
- Reduction in sUA, patient with the lowest baseline CrCl (baseline CrCl 53 ml/min): 40%
- Reduction in sUA, all patients with renal impairment (by the end of week 2, mild to moderate diminished renal function): ≥ 30%
- Plasma levels in gout patients (compared with Phase 1 healthy volunteer studies): generally consistent with those observed in Phase 1 healthy volunteer studies
- Linear trend of sUA reduction versus creatinine clearance (day 14, 400 mg qd, Cockcroft-Gault and MDRD methods): increasing benefit with lower CrCL
- Increase in serum creatinine (SCr), Grade 1 AE (two patients while on 400 mg QD, SCr fell back to normal limits after study): > 30%
